Test results: ChEMBL document CHEMBL1909046, “DrugMatrix in vitro pharmacology data”

Legend:
[1] = target: Prostaglandin G/H synthase 1 (Homo sapiens, UniProt P23219); experiment: biochemical; type: tissue-based, Platelet;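 also: inhibition of COX-1 enzyme activity, with arachidonic acid supplied as substrate; in other assays of this panel Not Active means under 50% inhibition at 10 µM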
[2] = target: T1, Cysteinyl leukotriene receptor 1 (Homo sapiens, UniProt Q9Y271); type: cell membranes, CHO-K1, Membrane; details: cho-k1; also: in other assays of this panel Not Active means under 50% inhibition at 10 µM
T1 sequence (Q9Y271 whole entry): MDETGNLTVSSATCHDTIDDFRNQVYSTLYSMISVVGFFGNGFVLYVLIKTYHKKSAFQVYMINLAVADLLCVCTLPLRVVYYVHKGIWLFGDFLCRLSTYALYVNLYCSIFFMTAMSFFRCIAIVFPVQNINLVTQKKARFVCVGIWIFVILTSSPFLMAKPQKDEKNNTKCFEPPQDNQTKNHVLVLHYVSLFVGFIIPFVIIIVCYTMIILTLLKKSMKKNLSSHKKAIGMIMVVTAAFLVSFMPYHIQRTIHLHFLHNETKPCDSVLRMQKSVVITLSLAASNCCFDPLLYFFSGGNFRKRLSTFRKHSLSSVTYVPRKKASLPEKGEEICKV

[3] = target: T2, Neutrophil elastase (Homo sapiens, UniProt P08246); type: tissue-based;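 also: inhibition of neutrophil elastase enzyme activity, measured with a p-nitroanilide-linked peptide substrate; in other assays of this panel Not Active means under 50% inhibition at 10 µM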
T2 sequence (P08246 whole entry): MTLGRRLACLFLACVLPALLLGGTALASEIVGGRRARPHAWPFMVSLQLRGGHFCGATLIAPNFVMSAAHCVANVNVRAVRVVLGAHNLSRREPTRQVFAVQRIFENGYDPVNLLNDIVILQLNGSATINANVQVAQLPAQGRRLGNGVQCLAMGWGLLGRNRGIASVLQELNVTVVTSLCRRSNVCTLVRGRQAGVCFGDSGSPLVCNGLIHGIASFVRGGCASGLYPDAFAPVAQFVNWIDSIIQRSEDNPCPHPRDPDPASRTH

[4] = target: Mitogen-activated protein kinase 3 (Homo sapiens, UniProt P27361); experiment: DRUGMATRIX: Protein Serine/Threonine Kinase, ERK1 enzyme inhibition (substrate: Myelin Basic Protein); parameters: species or system Escherichia coli; details: Not Active = under 50% inhibition at 10 µM
[5] = target: 5-hydroxytryptamine receptor 1B (Rattus norvegicus, UniProt P28564); type: cell membranes, Wistar, Cerebral cortex, Membrane; details: for Ki: read-out: Ki; as to all read-outs here: in other assays of this panel Not Active means under 50% inhibition at 10 µM
[6] = target: Cytochrome P450 2C19 (Homo sapiens, UniProt P33261); details: bti-tn-5b1-4; also: in other assays of this panel Not Active means under 50% inhibition at 10 µM
[7] = target: Voltage-gated inwardly rectifying potassium channel KCNH2 (Homo sapiens, UniProt Q12809); details: hek293; also: in other assays of this panel Not Active means under 50% inhibition at 10 µM
Chain of Voltage-gated inwardly rectifying potassium channel KCNH2 (Q12809 whole entry): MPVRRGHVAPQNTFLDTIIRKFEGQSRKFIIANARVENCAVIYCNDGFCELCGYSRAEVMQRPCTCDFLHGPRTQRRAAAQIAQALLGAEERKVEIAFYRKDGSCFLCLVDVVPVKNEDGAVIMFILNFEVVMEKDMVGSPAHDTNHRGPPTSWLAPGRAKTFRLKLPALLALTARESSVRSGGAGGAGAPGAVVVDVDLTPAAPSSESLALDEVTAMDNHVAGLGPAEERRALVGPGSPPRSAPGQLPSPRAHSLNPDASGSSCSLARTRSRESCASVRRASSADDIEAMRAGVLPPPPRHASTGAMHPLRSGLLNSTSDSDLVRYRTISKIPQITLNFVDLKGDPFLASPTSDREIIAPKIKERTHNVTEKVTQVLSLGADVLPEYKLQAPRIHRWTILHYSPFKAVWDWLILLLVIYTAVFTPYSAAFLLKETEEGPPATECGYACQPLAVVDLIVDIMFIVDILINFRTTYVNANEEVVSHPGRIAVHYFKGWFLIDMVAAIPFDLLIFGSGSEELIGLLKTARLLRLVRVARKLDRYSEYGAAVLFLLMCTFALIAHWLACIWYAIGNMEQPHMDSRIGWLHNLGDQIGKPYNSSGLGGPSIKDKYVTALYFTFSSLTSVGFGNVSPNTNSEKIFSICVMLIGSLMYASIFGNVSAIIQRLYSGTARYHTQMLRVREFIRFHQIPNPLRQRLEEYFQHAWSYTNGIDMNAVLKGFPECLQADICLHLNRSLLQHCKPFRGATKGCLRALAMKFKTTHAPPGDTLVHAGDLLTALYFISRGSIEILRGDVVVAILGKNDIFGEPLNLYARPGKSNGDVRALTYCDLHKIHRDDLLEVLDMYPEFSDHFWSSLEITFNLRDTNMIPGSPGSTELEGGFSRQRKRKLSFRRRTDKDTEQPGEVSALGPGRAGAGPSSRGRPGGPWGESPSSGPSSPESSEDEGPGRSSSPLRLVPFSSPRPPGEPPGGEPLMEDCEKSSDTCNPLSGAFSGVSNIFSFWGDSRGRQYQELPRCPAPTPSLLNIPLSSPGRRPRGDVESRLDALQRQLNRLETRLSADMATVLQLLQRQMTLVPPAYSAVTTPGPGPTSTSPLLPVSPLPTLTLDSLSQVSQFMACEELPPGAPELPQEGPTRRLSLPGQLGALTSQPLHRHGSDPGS

Chain of Prostaglandin G/H synthase 1 (P23219 whole entry): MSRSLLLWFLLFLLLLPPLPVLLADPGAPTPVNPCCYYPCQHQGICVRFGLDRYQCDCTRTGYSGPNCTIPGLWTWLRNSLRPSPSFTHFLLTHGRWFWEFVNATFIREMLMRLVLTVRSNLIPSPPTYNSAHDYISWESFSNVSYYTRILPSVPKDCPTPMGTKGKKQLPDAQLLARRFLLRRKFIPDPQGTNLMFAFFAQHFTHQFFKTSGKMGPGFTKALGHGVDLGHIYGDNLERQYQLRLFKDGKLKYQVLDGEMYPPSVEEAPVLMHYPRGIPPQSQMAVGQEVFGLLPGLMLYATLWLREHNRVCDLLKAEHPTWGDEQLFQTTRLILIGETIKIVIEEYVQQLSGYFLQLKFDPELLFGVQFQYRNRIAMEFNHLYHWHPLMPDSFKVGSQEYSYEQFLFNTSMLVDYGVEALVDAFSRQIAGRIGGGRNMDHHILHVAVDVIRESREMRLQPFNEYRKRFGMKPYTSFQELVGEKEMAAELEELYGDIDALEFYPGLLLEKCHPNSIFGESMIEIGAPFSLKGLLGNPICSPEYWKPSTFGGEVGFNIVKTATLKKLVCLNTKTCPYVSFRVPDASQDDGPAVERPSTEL
Chain of 5-hydroxytryptamine receptor 1B (P28564 whole entry): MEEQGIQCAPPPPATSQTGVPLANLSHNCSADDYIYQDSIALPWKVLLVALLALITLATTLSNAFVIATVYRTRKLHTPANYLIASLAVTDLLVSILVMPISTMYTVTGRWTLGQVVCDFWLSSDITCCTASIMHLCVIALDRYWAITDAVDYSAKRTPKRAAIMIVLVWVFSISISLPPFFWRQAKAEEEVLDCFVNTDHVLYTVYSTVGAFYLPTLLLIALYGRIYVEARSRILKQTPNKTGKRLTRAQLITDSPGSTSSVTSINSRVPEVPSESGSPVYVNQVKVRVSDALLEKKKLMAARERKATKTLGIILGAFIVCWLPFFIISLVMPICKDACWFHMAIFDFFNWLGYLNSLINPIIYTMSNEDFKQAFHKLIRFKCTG
Chain of Mitogen-activated protein kinase 3 (P27361 whole entry): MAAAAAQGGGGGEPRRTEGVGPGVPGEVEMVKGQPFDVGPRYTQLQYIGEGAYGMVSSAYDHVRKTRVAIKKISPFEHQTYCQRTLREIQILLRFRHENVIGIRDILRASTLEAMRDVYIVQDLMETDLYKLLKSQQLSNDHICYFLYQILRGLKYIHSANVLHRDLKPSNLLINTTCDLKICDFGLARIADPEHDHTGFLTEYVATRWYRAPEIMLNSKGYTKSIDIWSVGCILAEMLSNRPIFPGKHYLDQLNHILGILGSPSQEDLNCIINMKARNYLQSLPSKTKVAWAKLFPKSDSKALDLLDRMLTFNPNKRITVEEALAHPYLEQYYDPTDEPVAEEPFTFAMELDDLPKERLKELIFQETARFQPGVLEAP
Chain of Cytochrome P450 2C19 (P33261 whole entry): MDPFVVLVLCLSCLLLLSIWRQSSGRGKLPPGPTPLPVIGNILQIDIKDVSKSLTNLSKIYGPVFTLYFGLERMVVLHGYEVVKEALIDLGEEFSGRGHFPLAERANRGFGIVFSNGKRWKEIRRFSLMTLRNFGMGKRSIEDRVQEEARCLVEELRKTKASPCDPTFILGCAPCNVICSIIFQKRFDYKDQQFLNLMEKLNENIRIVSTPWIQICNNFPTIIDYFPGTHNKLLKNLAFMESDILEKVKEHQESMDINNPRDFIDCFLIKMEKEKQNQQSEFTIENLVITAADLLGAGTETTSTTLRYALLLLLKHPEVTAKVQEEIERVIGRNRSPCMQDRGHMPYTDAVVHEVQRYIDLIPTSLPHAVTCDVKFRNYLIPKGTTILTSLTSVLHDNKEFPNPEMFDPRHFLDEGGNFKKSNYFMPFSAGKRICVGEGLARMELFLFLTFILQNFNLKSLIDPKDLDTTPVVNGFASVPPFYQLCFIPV

Row | SMILES | IC50 ([1]; platelet) | IC50 [2] | IC50 [3] | IC50 [4] | IC50 [5] | IC50 [6] | Ki [6] | IC50 [7] | Ki [7] | IC50 ([1]; read-out: IC50) [µM] | IC50 ([5]; read-out: IC50) [µM] | Ki [5] [µM]
1 | CC(C)CN(C[C@@H](O)[C@H](Cc1ccccc1)NC(=O)O[C@H]1CCOC1)S(=O)(=O)c1ccc(N)cc1 | Not Active | Not Active | Not Active | Not Active | Not Active | Not Active | Not Active | Not Active | Not Active | – | – | –
2 | c1ccc(Nc2ccc(Nc3ccccc3)cc2)cc1 | – | Not Active | Not Active | Not Active | Not Active | Not Active | Not Active | Not Active | Not Active | 0.26 | – | –
3 | COc1cc2c3cc1Oc1cc(ccc1O)C[C@@H]1c4c(cc(OC)c(O)c4Oc4ccc(cc4)C[C@@H]3N(C)CC2)CC[N+]1(C)C.[Cl-] | Not Active | Not Active | Not Active | Not Active | Not Active | Not Active | Not Active | Not Active | Not Active | – | – | –
4 | NC(=O)N1c2ccccc2CCc2ccccc21 | Not Active | Not Active | Not Active | Not Active | Not Active | Not Active | Not Active | Not Active | Not Active | – | – | –
5 | O=C1CC[C@@H](N2C(=O)c3ccccc3C2=O)C(=O)N1 | Not Active | Not Active | Not Active | Not Active | Not Active | Not Active | Not Active | Not Active | Not Active | – | – | –
6 | Cc1onc(O)c1CC(N)C(=O)O (racemic) [(R,S)-AMPA] | Not Active | Not Active | Not Active | Not Active | Not Active | Not Active | Not Active | Not Active | Not Active | – | – | –
7 | Cc1ccc2cc3c(ccc4ccccc43)c3c2c1CC3 [3-METHYLCHOLANTHRENE] | Not Active | Not Active | Not Active | Not Active | Not Active | Not Active | Not Active | Not Active | Not Active | – | – | –
8 | CC[C@@]1(O)C[C@H](O[C@H]2C[C@H](N(C)C)[C@H](O[C@H]3C[C@H](O)[C@H](O[C@H]4CCC(=O)[C@H](C)O4)[C@H](C)O3)[C@H](C)O2)c2c(cc3c(c2O)C(=O)c2c(O)cccc2C3=O)[C@H]1C(=O)OC [ACLARUBICIN] | Not Active | Not Active | Not Active | Not Active | Not Active | Not Active | Not Active | Not Active | Not Active | – | – | –
9 | Nc1nc2c(ncn2COCCO)c(=O)[nH]1 [ACYCLOVIR] | Not Active | Not Active | Not Active | Not Active | Not Active | Not Active | Not Active | – | – | – | – | –
10 | Cc1c(C)c2c(c(C)c1O)CC[C@@](C)(CCC[C@H](C)CCC[C@H](C)CCCC(C)C)O2 [ALPHA-TOCOPHEROL] | Not Active | Not Active | Not Active | Not Active | Not Active | Not Active | Not Active | Not Active | Not Active | – | – | –
11 | CN(C)c1nc(N(C)C)nc(N(C)C)n1 [ALTRETAMINE] | Not Active | Not Active | Not Active | Not Active | Not Active | – | – | Not Active | Not Active | – | – | –
12 | Nc1c(Br)cc(Br)cc1CN[C@H]1CC[C@H](O)CC1 [AMBROXOL] | Not Active | Not Active | Not Active | Not Active | Not Active | – | – | Not Active | Not Active | – | – | –
13 | CCOC(=O)C1=C(COCCN)NC(C)=C(C(=O)OC)C1c1ccccc1Cl (configuration not stated) [AMLODIPINE] | Not Active | Not Active | Not Active | Not Active | Not Active | Not Active | Not Active | – | – | – | – | –
14 | Nc1ncn([C@@H]2O[C@H](CO)[C@@H](O)[C@H]2O)c(=O)n1 [AZACITIDINE] | Not Active | Not Active | Not Active | Not Active | Not Active | – | – | Not Active | Not Active | – | – | –
15 | CC(NC(C)(C)C)C(=O)c1cccc(Cl)c1 (configuration not stated) [BUPROPION] | Not Active | Not Active | Not Active | Not Active | Not Active | – | – | – | – | – | – | –
16 | Cc1ccc(-c2cc(C(F)(F)F)nn2-c2ccc(S(N)(=O)=O)cc2)cc1 [CELECOXIB] | – | Not Active | Not Active | Not Active | Not Active | Not Active | Not Active | Not Active | Not Active | – | – | –

Row | SMILES | IC50 ([1]; platelet) | IC50 [2] | IC50 [3] | IC50 [4] | IC50 [5] | IC50 [6] | Ki [6] | IC50 [7] | Ki [7] | IC50 ([1]; read-out: IC50) [µM] | IC50 ([5]; read-out: IC50) [µM] | Ki [5] [µM]
17 | CN(C)CCCN1c2ccccc2Sc2ccc(Cl)cc21 [CHLORPROMAZINE] | Not Active | Not Active | Not Active | Not Active | – | – | – | – | – | – | 4.04 | 1.84
18 | C[C@H](CCC(=O)O)[C@H]1CC[C@H]2[C@@H]3[C@H](O)C[C@@H]4C[C@H](O)CC[C@]4(C)[C@H]3C[C@H](O)[C@]12C [CHOLIC ACID] | Not Active | Not Active | Not Active | Not Active | Not Active | – | – | Not Active | Not Active | – | – | –
19 | CC(C)(Oc1ccc(Cl)cc1)C(=O)O [CLOFIBRIC ACID] | Not Active | Not Active | Not Active | Not Active | Not Active | – | – | Not Active | Not Active | – | – | –
20 | CNCCCN1c2ccccc2CCc2ccccc21 [DESIPRAMINE] | Not Active | Not Active | Not Active | Not Active | Not Active | Not Active | Not Active | – | – | – | – | –
21 | CC(C)[C@@]1(NC(=O)[C@@H]2C[C@@H]3c4cccc5[nH]cc(c45)C[C@H]3N(C)C2)O[C@@]2(O)[C@@H]3CCCN3C(=O)[C@H](Cc3ccccc3)N2C1=O.CS(=O)(=O)O [DIHYDROERGOCRISTINE MESYLATE] | Not Active | Not Active | Not Active | Not Active | – | – | – | Not Active | Not Active | – | 0.024 | 0.011
22 | COc1cc2nc(N3CCN(C(=O)C4COc5ccccc5O4)CC3)nc(N)c2cc1OC (configuration not stated) [DOXAZOSIN] | Not Active | Not Active | Not Active | Not Active | Not Active | Not Active | Not Active | – | – | – | – | –
23 | O=C(CCCN1CC=C(n2c(=O)[nH]c3ccccc32)CC1)c1ccc(F)cc1 [DROPERIDOL] | Not Active | Not Active | Not Active | Not Active | Not Active | Not Active | Not Active | – | – | – | – | –
24 | C[C@]12CC[C@@H]3c4ccc(O)cc4CC[C@H]3[C@@H]1CCC2=O [ESTRONE] | Not Active | Not Active | Not Active | Not Active | Not Active | – | – | Not Active | Not Active | – | – | –
25 | N=C(N)NCCN1CCCCCCC1 [GUANETHIDINE] | Not Active | Not Active | Not Active | Not Active | Not Active | – | – | – | – | – | – | –
26 | COCCc1ccc(OCC(O)CNC(C)C)cc1 (configuration not stated) [METOPROLOL] | Not Active | Not Active | Not Active | Not Active | Not Active | – | – | Not Active | Not Active | – | – | –
27 | CCn1cc(C(=O)O)c(=O)c2cc(F)c(N3CCNCC3)cc21 [NORFLOXACIN] | Not Active | Not Active | Not Active | Not Active | Not Active | – | – | Not Active | Not Active | – | – | –
28 | CC1(C)S[C@@H]2[C@H](NC(=O)Cc3ccccc3)C(=O)N2[C@H]1C(=O)O [PENICILLIN G] | Not Active | Not Active | Not Active | Not Active | Not Active | – | – | Not Active | Not Active | – | – | –
29 | CCOc1ccc(NC(C)=O)cc1 [PHENACETIN] | Not Active | Not Active | Not Active | Not Active | Not Active | – | – | Not Active | Not Active | – | – | –
30 | Cc1ccc(N(CC2=NCCN2)c2cccc(O)c2)cc1 [PHENTOLAMINE] | Not Active | Not Active | Not Active | Not Active | Not Active | Not Active | Not Active | – | – | – | – | –
31 | CN(C)CCCN1c2ccccc2Sc2ccccc21 [PROMAZINE] | Not Active | Not Active | Not Active | Not Active | Not Active | – | – | Not Active | Not Active | – | – | –
